In US8883835B2, “Plant disease controlling composition and method for controlling plant disease” (priority 2008, dated 2014):

System: Sclerotinia sclerotiorum
Assay: Controlling test against Sclerotinia sclerotiorum on cucumber by foliage spraying (Test Example 1)
Assay type: in vivo
Details: single compound, 12° C. and high humidity for 6 days
Description: A sand loam was filled into a plastic pot, and cucumber (Sagamihanjiro) was seeded, and grown in a greenhouse for 12 days. A flowable of the compound I, and an emulsifiable concentrate of any one of the compound II to the compound IV were diluted with water separately, and they were tank-mixed to prepare a tank mix solution containing the compound I and any one of the compounds II to IV at predetermined concentrations. The tank mix solution was subjected to foliage spraying so that it was sufficiently adhered to a leaf surface of the cucumber. After spraying, the plant was air-dried, and a PDA medium containing hyphae of Sclerotinia sclerotiorum was placed on the cucumber leaf surface. After seeding, this was placed under 12° C. and high humidity for 6 days, the controlling effect was investigated. Separately, for comparison, a flowable of the compound I, or an emulsifiable concentrate of any one compound of the compound II to the compound IV was diluted with water to prepare a water-diluted solution containing the predetermined amount of any one of compounds I to IV, and the similar controlling test was carried out. Further, for calculating an effective value, an onset area rate (ratio of onset area occupied in leaf area examined) in each treatment group was determined. The effective value was calculated by the Equation 1. […] A: Onset area rate of non-treated group B: Onset area rate of treated group In general, a effective value expected in treatment by mixing given two kinds of active ingredient compounds, i.e., an expected effective value is calculated by a Colby calculation equation of the Equation 2. E=X+Y−(X×Y)/100 “Equation 2” X: Effective value obtained by treatment with M ppm of the compound I Y: Effective value obtained by treatment with N ppm of the compound II, III or IV E: Effective value expected in treatment with M ppm of the compound I and N ppm of the compound II, III or IV (expected effective value) In addition, a synergistic effect was shown herein by a value calculated by the following Equation 3.

[1] = active ingredient concentration 3.1 ppm

SMILES	Actual effective value [1] [%]	Actual effective value (active ingredient concentration 0.8 ppm) [%]
C=CCSC(=O)n1c(N)c(-c2ccccc2C)c(=O)n1C(C)C [Compound I]	58	
Fc1ccc([C@]2(Cn3cncn3)O[C@H]2c2ccccc2Cl)cc1 (racemic) [Compound IV, (2RS,3SR)-1-[3-(2-chlorophenyl)-2,3-epoxy-2-(4-fluorophenyl)propyl]-1H-1,2,4-triazole]	6	
CC1(C)CCC(Cc2ccc(Cl)cc2)C1(O)Cn1cncn1 (stereo not drawn) [Compound II, (1RS,5RS;1RS,5SR)-5-(4-chlorobenzyl)-2,2-dimethyl-1-(1H-1,2,4-triazol-1-ylmethyl)cyclopentanol]	5	0
Clc1ccc(C2(Cn3cncn3)CC(Br)CO2)c(Cl)c1 (stereo not drawn) [Compound III, 1-[(2RS,4RS:2RS,4SR)-4-bromo-2-(2,4-dichlorophenyl)tetrahydrofurfuryl]-1H-1,2,4-triazole]	1	
